Assay results as given in patent publication US6525054B1, “Cyanoiminoquinoxaline derivatives” (Shionogi & Co., Ltd., priority 1998, dated 2003).
Counter-ions that a name gives are not always drawn.

Legend:
[1] = biological target: T1, glycine-binding site of NMDA receptor complex (Rattus norvegicus, UniProt P35439); test: Receptor affinity: [3H]glycine binding to rat cerebral cortex membrane fraction; set-up: species or system Slc-Wistar rat; conditions: 100 nM [3H]glycine, 0° C. 10 min
T1 construct: from tissue; host or cells: rat cerebral cortex membrane fraction (Triton X-100 treated)
Description: (§1) As to 2-cyanoimino-1,4-dihydro-7-(1,4-dihydro-4-oxo-1-pyridyl)-6-nitro-3-quinoxaline monosodium salt (hereinafter referred to as compound 2(2)) obtained in Example 2(2), the affinity for the AMPA receptor and glycine-binding site of the NMDA receptor was determined as follows.
Cerebral cortex of Slc-Wistar rat (body weight: 250˜300 g) was homogenized with 20 times volume of 5 mM Tris-acetate buffer (pH 7.4) containing 1 mM EGTA, 0.1 mM PMSF and 0.01% bacitracin […] and re-suspended (×4 times). The resultant suspension was restored at −80° C. until use. The froze suspension was thawed at room temperature and incubated at 2° C. in 0.08% triton X-100 solution for 10 min, then the mixture was washed 2 times and suspended into 50 mM Tris-acetate buffer (pH 7.4), to give a membrane fraction. The membrane fraction was incubated with 100 nM [^3H]glycine and a test compound of various concentrations at 0° C. for 10 min. The mixture was diluted and collected by filtration with Whatman GF/C paper to terminate the reaction, then the radioactivity of ^3H remained on the filter was determined with a liquid scintillation counter. The non-specific binding was determined using 1 mM non-radioactive glycine to calculate the IC50 value.

kidney = test: Nephrotoxicity; format: in vivo; conditions: 100 mg/kg i.v. bolus, SD rat, 24 hr later
Description: Compound 2(2) was intravenously administered by a bolus of 100 mg/kg to SD rat (9-10 weeks), which was killed 24 hr later. The both-side kidneys were immediately extracted from the rat. After measuring the weight, one kidney was embedded in paraffin to give a tissue preparation. The other kidney was homogenized, then the extract was subjected to liquid chromatography to determine the concentration of compound 2(2).

AMPA receptor = test: Receptor affinity: [3H]AMPA binding to rat cerebral cortex membrane fraction; set-up: species or system Slc-Wistar rat; conditions: 30 nM [3H]AMPA, 0° C. 30 min
Description: as §1
Cerebral cortex of Slc-Wistar rat (body weight: 250˜300 g) was homogenized with 10 times volume of 30 mM Tris-acetate buffer (pH 7.1) containing 2.5 mM CaCl2, then the mixture was centrifugalized (30,000×g, 15 min) and re-suspended (×3 times). The resultant suspension was restored at −80° C. until use. The froze suspension was thawed at room temperature and suspended into 30 mM Tris-acetate buffer (pH 7.1) containing 2.5 mM CaCl2 and 100 mM KSCN, to give a membrane fraction. The membrane fraction was incubated with 30 nM [^3H]AMPA and a test compound of various concentrations at 0° C. for 30 min. The mixture was diluted and collected by filtration with Whatman GF/C filter to terminate the reaction, then the radioactivity of ^3H remained on the filter was determined with a liquid scintillation counter. The non-specific binding was determined using 1 mM non-radioactive glutamate to calculate the IC50 value.

cerebral infarction = test: Inhibition effect on cerebral infarction (MCA occlusion/reperfusion); format: in vivo, Slc-Wistar rat; conditions: 24 hr of reperfusion
From the text: As to compound 2(2), the inhibition effect on cerebral infarction was examined. […] Briefly the animals were anesthetized with halothane (FLUOTHANE, Takeda Chemical Industries Ltd.). After median incision of the neck skin, the right external carotid artery (ECA) was carefully dissected. A coated nylon thread (#4-0, 17.5 mm, Nitcho Kogyo Co. Ltd.) was inserted from the lumen of the ECA to the right internal carotid artery to occlude the origin of the right middle cerebral artery. After surgery, anesthesia was immediately discontinued. […] After 1 hr of MCA occlusion, the thread was removed to allow reperfusion under halothane anesthesia. Body temperature was maintained at 37° C. with a heating pad during ischemic and reperfusion surgery.
The test compound was administered from 15 min after reperfusion for 1 hr by continuous infusion via a catheter (Clay Adams; PE-20) inserted into the femoral vein in a volume of 4 ml/kg/hr.
After 24 hr of reperfusion following 1 hr of MCA occlusion, rat was perfused with physiological saline containing heparin under pentobarbital anesthesia and the brain were removed after decapitation. The brain was cut into 12 coronal sections at 1 mm intervals using tissue chopper (McLWAIN) and immersed in saline containing 2% 2,3,5-triphenyltetrazolium-Cl (Wako Pure Chemical Industries, Ltd.) for 15 min. The stained brain sections were fixed by 10% formalin neutral buffered solution and infarct areas were quantified by an image analyzer system (OPTIMAS, Ver6.0) following scanning (Scantouch210, Nikon).

AMPA-induced seizure = test: Anticonvulsant effect on AMPA-induced seizure; format: in vivo, Slc-ddY mouse; conditions: iv; mouse, i.v. 1 min before AMPA 2 nmol/5 μL i.c.v., observed 15 min, Probit method
Description: The anticonvulsant effect of compound 2(2) on AMPA-induced seizure was determined. According to the method described in J. T. Haley and W. G. McCormich, Br. J. Pharmacol. 12, 12-15(1957), AMPA 2 nmol/5 μL was intracerebroventricular administered to the cerebral ventricle of Slc-ddY mouse (4-5 weeks, male). The test compound, in a volume of 0.1 mL /10 g, was intravenously administered 1 min before the AMPA administration. The convulsion was examined by observing and checking, for 15 min from the AMPA administration, the reveal of jumping, wild-running, […] convulsion and tonic convulsion, then the ED50 value was calculated by Probit method.

N#CN=c1[nH]c2cc(-n3ccc(=O)cc3)c([N+](=O)[O-])cc2[nH]c1=O [compound 2(2), 2-cyanoimino-1,4-dihydro-7-(1,4-dihydro-4-oxo-1-pyridyl)-6-nitro-3-quinoxaline monosodium salt]
IC50 [1]: 7.5 µM | Kidney tissue pathology (kidney): no pathological unusual | Weight of the kidney compared to the vehicle group (kidney): has not changed | Concentration of compound in the kidney (liquid chromatography) (kidney; kidney homogenate): not detected | IC50 (AMPA receptor): 0.034 µM | Infarct area at cerebral cortex (% of saline, mean ± standard error) (cerebral infarction; 0.3 mg/kg/h i.v. infusion for 1 hr from 15 min after reperfusion): 79.55 ± 13.99 % of saline | Infarct area at cerebral cortex (% of saline, mean ± standard error) (cerebral infarction; 1 mg/kg/h i.v. infusion for 1 hr from 15 min after reperfusion): 55.99 ± 11.77 % of saline | Infarct area at cerebral cortex (% of saline, mean ± standard error) (cerebral infarction; 3 mg/kg/h i.v. infusion for 1 hr from 15 min after reperfusion): 50.34 ± 10.14 % of saline | Infarct area at cerebral cortex (% of saline, mean ± standard error) (cerebral infarction; 10 mg/kg/h i.v. infusion for 1 hr from 15 min after reperfusion): 46.71 ± 15.24 % of saline | ED50 (AMPA-induced seizure): 6.9 mg/kg
